Assay [1] concerns the target recombinant human Bcl-2-G101V protein (Homo sapiens (Human), UniProt P10415, G101V). Put plainly: Bcl-2-G101V TR-FRET Assay. Type of assay: binding. The settings on record: Bcl-2 G101V mutant, TR-FRET; read-out: Biochemical assay (IC50, nM) Bcl-2 G101V. Put shortly:
(§1)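 IC50 values derive from four-parameter logistic fitting of percent inhibition data. That inhibition of ligand binding to Bcl-2-G101V is computed from the 490 nm/520 nm TR-FRET ratio under 337 nm excitation, over a rising compound concentration series.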

Assay [2] deals with recombinant human Bcl-2-G101V protein. Description: Bcl-2-G101V TR-FRET Assay. Conditions: ratio of biochemical IC50 Bcl-2 G101V / Bcl-2 WT. The class given is binding. Put shortly:
as §1
Background: TR-FRET usually uses a lanthanide donor and a delayed reading to cut background.

The subject of assay [3] is RS4;11 (BCL-2 dependent acute lymphoblastic leukemia cell line). Description: RS4;11 Cell Proliferation Assay. Type of assay: cell-based. The settings on record: Homo sapiens, RS4-11, RS4;11 cells, read-out: Cellular proliferation assay (IC50, nM) RS4. The essentials: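 Viability measured via CellTiter-Glo luminescence after a 48 h, 37 °C exposure to compounds (10 points, highest 1 μM). Seeding was 50,000 RS4;11 cells per well in 10% FBS RPMI-1640; IC50 given as mean.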

The subject of assay [4] is BCL-2 G101V knock-in cell line H96 (derive from RS4;11). Put plainly: Bcl 2-G101V Knock-In RS4;11 Cell Proliferation Assay. The settings on record: Homo sapiens, RS4;11 Bcl-2 G101V knock-in clone H96, 48 hrs, CellTiter-GLO, read-out: Cellular proliferation assay (IC50, nM) RS4. Type of assay: cell-based. The essentials:
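CellTiter-Glo luminescence after 48 h, 37 °C compound treatment (10 concentrations, maximum 1 μM or 10 μM) gave mean IC50 values. Cells were 50,000 per well of H96, a BCL2-G101V knock-in single clone derived from RS4;11 by Cas9 editing.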
On the technique in general: Cellular ATP, detected with luciferase, serves as a proxy for viable cell number.

Assay [5] concerns the target Recombinant human Bcl-2 protein (Homo sapiens (Human), UniProt P10415). Put plainly: Bcl-2 TR-FRET Assay. Type of assay: binding. Conditions: Bcl-2 wild type, TR-FRET; read-out: Biochemical assay (IC50, nM) Bcl-2 WT. Put shortly: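 In pH 7.5 phosphate buffer containing NaCl, EDTA, Tween-20 and BSA, 0.05 nM Bcl-2 saw serially diluted compound for 0.5 h before 0.5 nM FITC-Bak peptide was added. Signal ratio at 520/490 nm after 1 h yielded IC50.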

On to `COc1cc(CN2CCN(C3CC4(C3)CN(c3ccc(C(=O)NS(=O)(=O)c5ccc(NC[C@H]6CC[C@](C)(O)CC6)c([N+](=O)[O-])c5)c(Oc5cnc6[nH]cc(F)c6c5)c3)C4)[C@H](c3ccccc3C(C)C)C2)ccc1Cl` [Example 325, 4-(6-((R)-4-(4-chloro-3-methoxybenzyl)-2-(2-isopropylphenyl)piperazin-1-yl)-2-azaspiro[3.3]heptan-2-yl)-2-((3-fluoro-1H-pyrrolo[2,3-b]pyridin-5-yl)oxy)-N-((4-((((1r,4r)-4-hydroxy-4-methylcyclohexyl)methyl)amino)-3-nitrophenyl)sulfonyl) benzamide], for which the IC50 in assay [1] stood at 0.97 nM; in assay [3], 0.21 nM; in assay [4], 0.53 nM; in assay [5], 0.49 nM. In assay [2], the “Ratio of Bcl-2 G101V/WT” value was 2.
For `CC(C)c1ccccc1C1CN(Cc2cccc(OC3CC3)c2)CCN1C1CC2(CCN(c3ccc(C(=O)NS(=O)(=O)c4ccc(NC[C@H]5CC[C@](C)(O)CC5)c([N+](=O)[O-])c4)c(Oc4cnc5[nH]ccc5c4)c3)CC2)C1` (some centres unmarked) [Example 178, 2-((1H-pyrrolo[2,3-b]pyridin-5-yl)oxy)-4-(2-(4-(3-cyclopropoxybenzyl)-2-(2-isopropylphenyl)piperazin-1-yl)-7-azaspiro[3.5]nonan-7-yl)-N-((4-((((1r,4r)-4-hydroxy-4-methylcyclohexyl)methyl)amino)-3-nitrophenyl)sulfonyl)benzamide], the IC50 in assay [1] is 1.5 nM; in assay [3] it was 0.64 nM; in assay [4], 4.87 nM; in assay [5], 0.52 nM. Also, in assay [2], the “Ratio of Bcl-2 G101V/WT” value is given as 2.9.
As for `CC(C)c1ccccc1C1CN(Cc2ccc3c(c2)OC(F)(F)O3)CCN1C1CC2(CCN(c3ccc(C(=O)NS(=O)(=O)c4ccc(NC[C@H]5CC[C@](C)(O)CC5)c([N+](=O)[O-])c4)c(Oc4cnc5[nH]ccc5c4)c3)CC2)C1` (some centres unmarked) [Example 168, 2-((1H-pyrrolo[2,3-b]pyridin-5-yl)oxy)-4-(2-(4-((2,2-difluorobenzo[d] [1,3]dioxol-5-yl)methyl)-2-(2-isopropylphenyl)piperazin-1-yl)-7-azaspiro[3.5]nonan-7-yl)-N-((4-((((1r,4r)-4-hydroxy-4-methylcyclohexyl)methyl)amino)-3-nitrophenyl)sulfonyl)benzamide], the IC50 in assay [1] is 4.6 nM; in assay [3], 0.48 nM; in assay [4], 1.68 nM; in assay [5], 0.79 nM. Besides, the “Ratio of Bcl-2 G101V/WT” value in assay [2] amounted to 5.9.
For `COc1cc(CN2CCN(C3CC4(C3)CN(c3ccc(C(=O)NS(=O)(=O)c5ccc(NC[C@H]6CC[C@](C)(O)CC6)c([N+](=O)[O-])c5)c(Oc5cnc6[nH]cc(F)c6c5)c3)C4)[C@H](c3ccccc3C(C)C)C2)cc2c1OCCC2(F)F` [Example 354, 4-(6-((R)-4-((4,4-difluoro-8-methoxychroman-6-yl)methyl)-2-(2-isopropylphenyl)piperazin-1-yl)-2-azaspiro[3.3]heptan-2-yl)-2-((3-fluoro-1H-pyrrolo[2,3-b]pyridin-5-yl)oxy)-N-((4-((((1r,4r)-4-hydroxy-4-methylcyclohexyl)methyl)amino)-3-nitrophenyl)sulfonyl)benzamide], the IC50 in assay [1] is 1.9 nM; in assay [3] it was 0.14 nM; in assay [4], 3 nM; in assay [5] it was 0.9 nM. Besides, in assay [2], the “Ratio of Bcl-2 G101V/WT” value is on record as 2.2.
The like results for `COc1c(Cl)cccc1CN1CCN(C2CC3(CCN(c4ccc(C(=O)NS(=O)(=O)c5ccc(NC[C@H]6CC[C@](C)(O)CC6)c([N+](=O)[O-])c5)c(Oc5cnc6[nH]ccc6c5)c4)CC3)C2)C(c2ccccc2C(C)C)C1` (some centres unmarked) [Example 119, 2-((1H-pyrrolo[2,3-b]pyridin-5-yl)oxy)-4-(2-(4-(3-chloro-2-methoxybenzyl)-2-(2-isopropylphenyl)piperazin-1-yl)-7-azaspiro[3.5]nonan-7-yl)-N-((4-((((1r,4r)-4-hydroxy-4-methylcyclohexyl)methyl)amino)-3-nitrophenyl)sulfonyl)benzamide] were, in that order, 3.1 nM, 1.44 nM, 14.4 nM, 0.37 nM and 8.5.
For `CC(C)c1ccccc1C1CN(Cc2cccc3c2N(C)C(=O)CO3)CCN1C1CC2(CCN(c3ccc(C(=O)NS(=O)(=O)c4ccc(NC[C@H]5CC[C@](C)(O)CC5)c([N+](=O)[O-])c4)c(Oc4cnc5[nH]ccc5c4)c3)CC2)C1` (some centres unmarked) [Example 216, 2-((1H-pyrrolo[2,3-b]pyridin-5-yl)oxy)-N-((4-((((1r,4r)-4-hydroxy-4-methylcyclohexyl)methyl)amino)-3-nitrophenyl)sulfonyl)-4-(2-(2-(2-isopropylphenyl)-4-((4-methyl-3-oxo-3,4-dihydro-2H-benzo[b] [1,4]oxazin-5-yl)methyl)piperazin-1-yl)-7-azaspiro[3.5]nonan-7-yl) benzamide] the same measures were 0.81 nM, 0.33 nM, 2.76 nM, 0.19 nM and 4.2.
Consider `COc1cc(CN2CCN(C3CC4(C3)CN(c3ccc(C(=O)NS(=O)(=O)c5ccc(NC[C@H]6CC[C@](C)(O)CC6)c([N+](=O)[O-])c5)c(Oc5cnc6[nH]ccc6c5)c3)C4)[C@H](c3ccccc3C(C)C)C2)cc(F)c1OC` [Example 245, 2-((1H-pyrrolo[2,3-b]pyridin-5-yl)oxy)-4-(6-((R)-4-(3-fluoro-4,5-dimethoxybenzyl)-2-(2-isopropylphenyl)piperazin-1-yl)-2-azaspiro[3.3]heptan-2-yl)-N-((4-((((1r,4r)-4-hydroxy-4-methylcyclohexyl)methyl)amino)-3-nitrophenyl)sulfonyl)benzamide], for which the IC50 in assay [1] amounted to 0.32 nM; in assay [3], 0.15 nM; in assay [4], 0.53 nM; in assay [5], 0.13 nM. For the same compound, in assay [2], the “Ratio of Bcl-2 G101V/WT” value was found to be 2.5.
The like results for `COc1ccc(CN2CCN(C3CC4(CCN(c5ccc(C(=O)NS(=O)(=O)c6ccc(NC[C@H]7CC[C@](C)(O)CC7)c([N+](=O)[O-])c6)c(Oc6cnc7[nH]ccc7c6)c5)CC4)C3)C(c3ccccc3C(C)C)C2)cc1OC(F)F` (some centres unmarked) [Example 169, 2-((1H-pyrrolo[2,3-b]pyridin-5-yl)oxy)-4-(2-(4-(3-(difluoromethoxy)-4-methoxybenzyl)-2-(2-isopropylphenyl)piperazin-1-yl)-7-azaspiro[3.5]nonan-7-yl)-N-((4-((((1r,4r)-4-hydroxy-4-methylcyclohexyl)methyl)amino)-3-nitrophenyl)sulfonyl)benzamide] were, in that order, 2.4 nM, 0.49 nM, 1.5 nM, 0.62 nM and 3.9.
For `COc1cc(CN2CCN(C3CC4(CCN(c5ccc(C(=O)NS(=O)(=O)c6ccc(NC[C@H]7CC[C@](C)(O)CC7)c([N+](=O)[O-])c6)c(Oc6cnc7[nH]ccc7c6)c5)CC4)C3)C(c3ccccc3C(C)C)C2)ccc1Cl` (some centres unmarked) [Example 126, 2-((1H-pyrrolo[2,3-b]pyridin-5-yl)oxy)-4-(2-(4-(4-chloro-3-methoxybenzyl)-2-(2-isopropylphenyl)piperazin-1-yl)-7-azaspiro[3.5]nonan-7-yl)-N-((4-((((1r,4r)-4-hydroxy-4-methylcyclohexyl)methyl)amino)-3-nitrophenyl)sulfonyl)benzamide] the same measures were 1.9 nM, 0.18 nM, 3.6 nM, 0.42 nM and 4.5.
Turning to `CC(C)c1ccccc1C1CN(Cc2cccc3occc23)CCN1C1CC2(CCN(c3ccc(C(=O)NS(=O)(=O)c4ccc(NC[C@H]5CC[C@](C)(O)CC5)c([N+](=O)[O-])c4)c(Oc4cnc5[nH]ccc5c4)c3)CC2)C1` (some centres unmarked) [Example 213, 2-((1H-pyrrolo[2,3-b]pyridin-5-yl)oxy)-4-(2-(4-(benzofuran-4-ylmethyl)-2-(2-isopropylphenyl)piperazin-1-yl)-7-azaspiro[3.5]nonan-7-yl)-N-((4-((((1r,4r)-4-hydroxy-4-methylcyclohexyl)methyl)amino)-3-nitrophenyl)sulfonyl)benzamide], the IC50 in assay [1] is 2.6 nM; in assay [3], 0.32 nM; in assay [4], 5.2 nM; in assay [5], 0.7 nM. Moreover, in assay [2], the “Ratio of Bcl-2 G101V/WT” value came to 3.7.

For the origin of these results see US20240376097A1, “BCL-2 Inhibitor” (BeiGene Ltd., priority 2020, published 2024).
